Source: patent US7851637B2, “Compounds and methods for inhibiting the interaction of BCL proteins with binding partners” (Infinity Pharmaceuticals, Inc., priority 2004, dated 2010)
pIC50, pKi: −log10 of the molar value. Read-outs that look alike come from different tables or passages of the source.

Key:
[1] = biological target: Bcl-2 (Homo sapiens, UniProt P10415); assay: Bcl-2 binding affinity analysis (fluorescence polarization binding assay)
Summary of the method: (§1)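 Sensitive, quantitative cell-free test: compound incubated with protein, then polarization of emitted fluorescence recorded to gauge affinity.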

[2] = biological target: Bcl-xL (Homo sapiens, UniProt Q07817); assay: Bcl-xL binding affinity analysis (fluorescence polarization binding assay); parameters: scale not given here
Summary of the method: as §1

[3] = system: RL Human Follicular Lymphoma Cell Line; assay: Alamar blue cytotoxicity assay in RL cells; format: cell-based; settings: 72 h incubation, read-out: Bcl RL Alamar Blue IC50
Method: When RL-cells are exposed to isoxazolidine compounds of the present invention, the inhibitors show a dose-dependent cell-killing in the Alamar blue cytoxicity assay with IC50 values of from about 100 μM to about 1 μM (See Examples). When Panc1 cells are exposed to the isoxazolidine compounds of the present invention in combination with camptothecin, the inhibitors show a synergistic dose-dependent cell killing in the propidium iodide exclusion cell survival assay with IC50 values of from about 100 μM to about 1 μM (See Examples).
• 1) Using 96 well plates, compounds were serially diluted in DMSO from 9 mM to 4 uM • 2) Assay plates were prepared by diluting samples 310 fold into 150 ul of medium containing 30,000 cells/well resulting in a final DMSO concentration of 0.3% and a concentration range from 29 uM to 0.013 uM for each compound. • 3) Plates were incubated at 37 C and 5% CO2 for 72 h • 4) After 72 h, Alamar blue reagent was added to each well and plates read according to manufacturer's instructions
In vitro cytotoxicity data for RL cells is presented below for various compounds of the invention.

Chain of Bcl-xL (Q07817 whole entry): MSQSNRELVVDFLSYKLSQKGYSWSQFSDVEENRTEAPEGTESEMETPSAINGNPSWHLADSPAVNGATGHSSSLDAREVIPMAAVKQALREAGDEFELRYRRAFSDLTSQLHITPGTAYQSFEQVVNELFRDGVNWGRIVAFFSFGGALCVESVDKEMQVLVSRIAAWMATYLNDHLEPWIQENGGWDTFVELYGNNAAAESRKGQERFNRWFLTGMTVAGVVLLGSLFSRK
Chain of Bcl-2 (P10415 whole entry): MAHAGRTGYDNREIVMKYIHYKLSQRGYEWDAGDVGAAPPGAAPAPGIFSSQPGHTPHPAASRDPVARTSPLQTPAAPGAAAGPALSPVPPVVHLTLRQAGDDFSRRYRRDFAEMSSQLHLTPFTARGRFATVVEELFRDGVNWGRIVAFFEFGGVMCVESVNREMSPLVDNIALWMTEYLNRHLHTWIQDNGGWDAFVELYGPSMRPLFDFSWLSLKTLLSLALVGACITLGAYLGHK

| pKi [1] | Bcl-XL binding affinity Ki [2] | SMILES | pIC50 ([3]; Homo sapiens) | pIC50 [3] |
| --- | --- | --- | --- | --- |
| > 6.10 | ♯ | CC(O)C1C(CO)ON(Cc2cccc(CN(CCN(C)C)Cc3cccc(Oc4ccccc4)c3)c2)C1C(=O)NC1CC2CC(C1C)C2(C)C (stereo not drawn) [Compound 374] | 5.30 to 5.70 | – |
| > 6.10 | ♯ | CC(O)C1C(CO)ON(Cc2cccc(CN(CCN(C)C)Cc3ccc(C(F)(F)F)cc3)c2)C1C(=O)NC1CC2CC(C1C)C2(C)C (stereo not drawn) [Compound 371] | 5.30 to 5.70 | – |
| > 6.10 | ♯ | COc1c(CN2O[C@@H](CO)[C@@H]([C@H](C)O)[C@H]2C(=O)N[C@H]2C[C@H]3C[C@@H]([C@@H]2C)C3(C)C)cccc1-c1cccc(C(=O)N[C@@H](Cc2ccccc2)CN(C)C)c1 [Compound 477] | > 5.70 | – |
| > 6.10 | ♯ | CC(O)C1C(CO)ON(Cc2cccc(CNCC3CCCN3C(=O)OCc3ccccc3)c2)C1C(=O)NC1CC2CC(C1C)C2(C)C (stereo not drawn) [Compound 474] | 5.30 to 5.70 | – |
| > 6.10 | ♯ | CC(C)CC(CN(C)C)N(Cc1cccc(CN2OC(CO)C(C(C)O)C2C(=O)NC2CC3CC(C2C)C3(C)C)c1)Cc1ccc(F)cc1C(F)(F)F (stereo not drawn) [Compound 323] | < 5.30 | – |
| > 6.10 | ♯ | CC(C)CC(CN(C)C)N(Cc1ccc(C(F)(F)F)cc1)Cc1cccc(CN2OC(CO)C(C(C)O)C2C(=O)NC2CC3CC(C2C)C3(C)C)c1 (stereo not drawn) [Compound 327] | > 5.70 | – |
| > 6.10 | ♯ | COc1ccccc1CN(CCN(C)C)Cc1cccc(CN2OC(CO)C(C(C)O)C2C(=O)NC2CC3CC(C2C)C3(C)C)c1 (stereo not drawn) [Compound 351] | 5.30 to 5.70 | – |
| > 6.10 | ♯ | C[C@@H]1[C@@H](NC(=O)[C@@H]2[C@H]([C@H](C)O)[C@H](CO)ON2Cc2cccc(NC(=O)N[C@H](CC3CCCCC3)CN(C)C)c2)C[C@H]2C[C@@H]1C2(C)C [Compound 574] | 5.30 to 5.70 | – |
| > 6.10 | ♯ | C[C@@H]1[C@@H](NC(=O)[C@@H]2C([C@H](C)O)[C@H](CO)ON2Cc2cccc(CN(CCN(C)C)Cc3cccc(F)c3F)c2)C[C@H]2C[C@@H]1C2(C)C (stereo partly drawn) [Compound 362] | 5.30 to 5.70 | – |
| > 6.10 | ♯ | CC(O)C1C(CO)ON(Cc2cccc(CN3CCN(C)C(c4ccccc4)C3)c2)C1C(=O)NC1CC2CC(C1C)C2(C)C (stereo not drawn) [Compound 456] | < 5.30 | – |
| > 6.10 | ♯ | C[C@@H]1[C@@H](NC(=O)[C@@H]2[C@H]([C@H](C)O)[C@H](CO)ON2Cc2cccc(NC(=O)N[C@@H](Cc3ccccc3)CN(C)C)c2)C[C@H]2C[C@@H]1C2(C)C [Compound 570] | < 5.30 | – |
| > 6.10 | ♯ | CC(O)C1C(CO)ON(Cc2cccc(CN(CCN(C)C)Cc3c(Cl)cccc3Cl)c2)C1C(=O)NC1CC2CC(C1C)C2(C)C (stereo not drawn) [Compound 373] | 5.30 to 5.70 | – |
| > 6.10 | ♯ | CC(O)C1C(CO)ON(Cc2cccc(CN(CCN(C)C)Cc3ccc(-c4ccccc4)cc3)c2)C1C(=O)NC1CC2CC(C1C)C2(C)C (stereo not drawn) [Compound 400] | > 5.70 | – |
| > 6.10 | ♯ | CC(=O)Oc1cccc(CN(CCN(C)C)Cc2cccc(CN3OC(CO)C(C(C)O)C3C(=O)NC3CC4CC(C3C)C4(C)C)c2)c1 (stereo not drawn) [Compound 405] | 5.30 to 5.70 | – |
| > 6.10 | ♯ | CC(O)C1C(CO)ON(Cc2cccc(NC(=O)NC(CCc3ccccc3)CN(C)C)c2)C1C(=O)NC1CC2CC(C1C)C2(C)C (stereo not drawn) [Compound 573] | – | 5.30 to 5.70 |
| > 6.10 | ♯ | CC(C)C[C@@H](CN(C)C)N(Cc1cccc(CN2O[C@@H](CO)C([C@H](C)O)[C@H]2C(=O)N[C@H]2C[C@H]3C[C@@H]([C@@H]2C)C3(C)C)c1)Cc1c(Cl)cccc1[N+](=O)[O-] (stereo partly drawn) [Compound 322] | 5.30 to 5.70 | – |
| > 6.10 | ♯ | CC(O)C1C(CO)ON(Cc2cccc(CN(CCN(C)C)Cc3cccc(OC(F)(F)F)c3)c2)C1C(=O)NC1CC2CC(C1C)C2(C)C (stereo not drawn) [Compound 367] | 5.30 to 5.70 | – |
| > 6.10 | ♯ | COc1cc(CN(CCN(C)C)Cc2cccc(CN3OC(CO)C(C(C)O)C3C(=O)NC3CC4CC(C3C)C4(C)C)c2)cc(OC)c1 (stereo not drawn) [Compound 404] | 5.30 to 5.70 | – |
| > 6.10 | ♯ | COc1cccc(OC)c1CN(Cc1cccc(CN2OC(CO)C(C(C)O)C2C(=O)NC2CC3CC(C2C)C3(C)C)c1)C(CC(C)C)CN(C)C (stereo not drawn) [Compound 324] | > 5.70 | – |

| pKi [1] | Bcl-XL binding affinity Ki [2] | SMILES | pIC50 ([3]; Homo sapiens) | pIC50 [3] |
| --- | --- | --- | --- | --- |
| > 6.10 | ♯ | CCOc1cccc(CN(CCN(C)C)Cc2cccc(CN3OC(CO)C(C(C)O)C3C(=O)NC3CC4CC(C3C)C4(C)C)c2)c1 (stereo not drawn) [Compound 383] | 5.30 to 5.70 | – |
| > 6.10 | ♯ | CC(O)C1C(CO)ON(Cc2cccc(CN3C(CN(C)C)CC4CCCCC43)c2)C1C(=O)NC1CC2CC(C1C)C2(C)C (stereo not drawn) [Compound 466] | < 5.30 | – |
| > 6.10 | ♯ | CC(O)C1C(CO)ON(Cc2cccc(CN(CCN(C)C)Cc3cccc4ccccc34)c2)C1C(=O)NC1CC2CC(C1C)C2(C)C (stereo not drawn) [Compound 368] | 5.30 to 5.70 | – |
| > 6.10 | ♯ | CC(O)C1C(CO)ON(Cc2cccc(NC(=O)NC(CCc3ccccc3)CN(C)C)c2)C1C(=O)NC1CC2CC(C1C)C2(C)C (stereo not drawn) [Compound 572] | 5.30 to 5.70 | – |
| > 6.10 | ♯ | CCc1ccccc1CN(CCN(C)C)Cc1cccc(CN2OC(CO)C(C(C)O)C2C(=O)NC2CC3CC(C2C)C3(C)C)c1 (stereo not drawn) [Compound 349] | > 5.70 | – |
| > 6.10 | ♯ | Cc1ccc(CN(CCN(C)C)Cc2cccc(CN3OC(CO)C(C(C)O)C3C(=O)NC3CC4CC(C3C)C4(C)C)c2)cc1 (stereo not drawn) [Compound 386] | 5.30 to 5.70 | – |
| > 6.10 | ♯ | C[C@@H]1[C@@H](NC(=O)[C@@H]2C([C@H](C)O)[C@H](CO)ON2Cc2cccc(CN(Cc3ccccc3)[C@@H](CCc3ccccc3)CN(C)C)c2)C[C@H]2C[C@@H]1C2(C)C (stereo partly drawn) [Compound 420] | > 5.70 | – |
| > 6.10 | ♯ | CC(O)C1C(CO)ON(Cc2cccc(CN(CCN(C)C)Cc3cc4ccccc4o3)c2)C1C(=O)NC1CC2CC(C1C)C2(C)C (stereo not drawn) [Compound 384] | 5.30 to 5.70 | – |
| > 6.10 | ♯ | CC(O)C1C(CO)ON(Cc2cccc(CN(CCN(C)C)Cc3cccc(O)c3)c2)C1C(=O)NC1CC2CC(C1C)C2(C)C (stereo not drawn) [Compound 378] | 5.30 to 5.70 | – |
| > 6.10 | ♯ | C[C@@H]1[C@@H](NC(=O)[C@@H]2[C@H]([C@H](C)O)[C@H](CO)ON2Cc2cccc(NC(=O)N[C@@H](CC3CCCCC3)CN(C)C)c2)C[C@H]2C[C@@H]1C2(C)C [Compound 577] | 5.30 to 5.70 | – |
| > 6.10 | ♯ | CC(O)C1C(CO)ON(Cc2cccc(CN(CCN(C)C)Cc3ccccc3F)c2)C1C(=O)NC1CC2CC(C1C)C2(C)C (stereo not drawn) [Compound 352] | 5.30 to 5.70 | – |
| > 6.10 | ♯ | CC(C)C(CN(C)C)NC(=O)c1cccc(CN2OC(CO)C(C(C)O)C2C(=O)NC2CC3CC(C2C)C3(C)C)c1 (stereo not drawn) [Compound 502] | < 5.30 | – |
| > 6.10 | ♯ | COc1c(CN2O[C@@H](CO)[C@@H]([C@H](C)O)[C@H]2C(=O)N[C@H]2C[C@H]3C[C@@H]([C@@H]2C)C3(C)C)cccc1-c1cccc(C(=O)N[C@H](CCc2ccccc2)CN(C)C)c1 [Compound 482] | > 5.70 | – |
| > 6.10 | ♯ | CC(O)C1C(CO)ON(Cc2cccc(CN3c4ccccc4CC3CN(C)C)c2)C1C(=O)NC1CC2CC(C1C)C2(C)C (stereo not drawn) [Compound 465] | < 5.30 | – |
| > 6.10 | ♯ | CC(O)C1C(CO)ON(Cc2cccc(CN(Cc3ccccc3)C(CC3CCCCC3)CN(C)C)c2)C1C(=O)NC1CC2CC(C1C)C2(C)C (stereo not drawn) [Compound 437] | < 5.30 | – |
| > 6.10 | ♯ | CC(O)C1C(CO)ON(Cc2cccc(C(=O)NC(Cc3ccccc3)CN(C)C)c2)C1C(=O)NC1CC2CC(C1C)C2(C)C (stereo not drawn) [Compound 507] | < 5.30 | – |
| > 6.10 | ♯ | C[C@@H]1[C@@H](NC(=O)[C@@H]2[C@H]([C@H](C)O)[C@H](CO)ON2Cc2cccc(N(CCCN(C)C)CC3CCCCC3)c2)C[C@H]2C[C@@H]1C2(C)C [Compound 586] | 5.30 to 5.70 | – |
| > 6.10 | ♯ | C[C@@H]1[C@@H](NC(=O)[C@@H]2C([C@H](C)O)[C@H](CO)ON2Cc2cccc(CN(Cc3ccccc3)[C@@H]3CCN(C)C3)c2)C[C@H]2C[C@@H]1C2(C)C (stereo partly drawn) [Compound 432] | > 5.70 | – |
| > 6.10 | ♯ | CC(O)C1C(CO)ON(Cc2cccc(CN(CCN(C)C)Cc3ccccc3C#N)c2)C1C(=O)NC1CC2CC(C1C)C2(C)C (stereo not drawn) [Compound 369] | 5.30 to 5.70 | – |
